# Source: patent US8486931B2, “Substituted oxindole compounds” (Abbott GmbH & Co. KG, priority 2007, dated 2013)
# Where a name gives a salt, the structure may show the parent alone.
# Biological target: T1, human vasopressin V1b receptor (Homo sapiens, UniProt P47901)
# T1 construct: expressed in transfected cells; host or cells: CHO-K1 (cell line hV1b-3H2_CHO), membrane preparation
# T1 sequence (P47901 1-424): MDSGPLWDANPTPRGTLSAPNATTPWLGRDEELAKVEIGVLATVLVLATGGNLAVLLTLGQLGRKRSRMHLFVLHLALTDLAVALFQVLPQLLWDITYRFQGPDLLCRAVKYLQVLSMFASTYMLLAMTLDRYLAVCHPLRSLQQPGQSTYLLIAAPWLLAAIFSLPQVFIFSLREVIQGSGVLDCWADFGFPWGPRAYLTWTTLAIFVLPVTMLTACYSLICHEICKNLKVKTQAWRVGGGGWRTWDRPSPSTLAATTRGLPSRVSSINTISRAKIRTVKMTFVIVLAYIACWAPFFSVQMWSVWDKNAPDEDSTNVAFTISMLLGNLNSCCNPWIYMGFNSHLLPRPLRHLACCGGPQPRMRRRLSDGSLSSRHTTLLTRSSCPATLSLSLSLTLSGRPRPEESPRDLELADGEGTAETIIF
# Experiment: Vasopressin V1b receptor binding assay
# Conditions: membranes from CHO-K1 cells with stably expressed human V1b receptors, 1.5 nM 3H-AVP displacement; with more than one stereogenic center: the diastereomer with stronger affinity
# Procedure, shortened: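 Membranes bearing human V1b receptor incubated 60 min at room temperature in 50 mM Tris, 10 mM MgCl2, 0.1% BSA, pH 7.4, 2% DMSO, triplicate.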
row,Structure (SMILES),Ki
1,"CCOc1ccc(OC)cc1C1(N2CCN(c3ccncc3)CC2)C(=O)N(S(=O)(=O)c2ccc(F)c3cccnc23)c2ccc(C#N)cc21 (racemic) [Example 81, (±)-5-Cyano-3-(2-ethoxy-5-methoxyphenyl)-1-(5-fluoroquinoline-8-sulfonyl)-3-(4-pyridin-4-ylpiperazin-1-yl)-2,3-dihydro-1H-indol-2-one]",< 10 nM
2,"CCOc1ccc(OC)cc1C1(N2CCN(c3ccncc3)CC2)C(=O)N(S(=O)(=O)c2ccc(OC)cn2)c2ccc(C#N)cc21 (racemic) [Example 82, (±)-5-Cyano-3-(2-ethoxy-5-methoxyphenyl)-1-(5-methoxypyridine-2-sulfonyl)-3-(4-pyridin-4-ylpiperazin-1-yl)-2,3-dihydro-1H-indol-2-one]",< 10 nM
3,"CCOc1ccccc1C1(N2CCN(C3CCN(C)CC3)CC2)C(=O)N(S(=O)(=O)c2ccc(OC)cn2)c2ccc(C#N)cc21 (racemic) [Example 83, (±)-5-Cyano-3-(2-ethoxyphenyl)-1-(5-methoxypyridine-2-sulfonyl)-3-[4-(1-methyl-piperidin-4-yl)piperazin-1-yl]-2,3-dihydro-1H-indol-2-one]",10 to 50 nM
4,"CCOc1ccccc1C1(N2CCN(c3ccncc3)CC2)C(=O)N(S(=O)(=O)c2cccc3c(CC)ccnc23)c2ccc(C#N)cc21 (racemic) [Example 84, (±)-5-Cyano-3-(2-ethoxyphenyl)-1-(4-ethylquinoline-8-sulfonyl)-3-(4-pyridin-4-yl-piperazin-1-yl)-2,3-dihydro-1H-indol-2-one]",< 10 nM
5,"CCOc1nc(Cl)ccc1C1(N2CCN(c3ccnc(C)c3)CC2)C(=O)N(S(=O)(=O)c2ccc(OC)c3cccnc23)c2ccc(C#N)cc21 (racemic) [Example 85, (±)-5-Cyano-3-(6-chloro-2-ethoxypyridin-3-yl)-1-(5-methoxyquinoline-8-sulfonyl)-3-[4-(2-methylpyridin-4-yl)piperazin-1-yl]-2,3-dihydro-1H-indol-2-one]",< 10 nM
6,"CCOc1ccc(OC)cc1C1(N2CCC(N3CCNCC3)CC2)C(=O)N(S(=O)(=O)c2ccc(OC)cn2)c2ccc(C#N)cc21 (racemic) [Example 86, (±)-5-Cyano-3-(2-ethoxy-5-methoxyphenyl)-1-(5-methoxypyridine-2-sulfonyl)-3-(4-piperazin-1-ylpiperidin-1-yl)-2,3-dihydro-1H-indol-2-one]",< 10 nM
7,"CCOc1ccc(OC)cc1C1(N2CCC(N3CCNCC3)CC2)C(=O)N(S(=O)(=O)c2ccc(OC)c3cccnc23)c2ccc(C#N)cc21 (racemic) [Example 87, (±)-5-Cyano-3-(2-ethoxy-5-methoxyphenyl)-1-(5-methoxyquinoline-8-sulfonyl)-3-(4-piperazin-1-ylpiperidin-1-yl)-2,3-dihydro-1H-indol-2-one hydrochloride]",< 10 nM
8,"CCOc1ccccc1C1(N2CCN(c3ccncc3)CC2)C(=O)N(S(=O)(=O)c2ccc(C)c3cccnc23)c2ccc(C#N)cc21 (racemic) [Example 88, (±)-5-Cyano-3-(2-ethoxyphenyl)-1-(5-methylquinoline-8-sulfonyl)-3-(4-pyridin-4-yl-piperazin-1-yl)-2,3-dihydro-1H-indol-2-one]",10 to 50 nM
9,"CCOc1cc(F)ccc1C1(N2CCN(c3ccnc(C)c3)CC2)C(=O)N(S(=O)(=O)c2ccc(OC)cn2)c2ccc(C#N)cc21 (racemic) [Example 144, (±)-5-Cyano-3-(2-ethoxy-4-fluoro-phenyl)-1-(5-methoxy-pyridine-2-sulfonyl)-3-[4-(2-methyl-pyridin-4-yl)-piperazin-1-yl]-2,3-dihydro-1H-indol-2-one]",< 10 nM
10,"CCOc1ccc(OC)cc1C1(N2CCC(N3CCN(CC)CC3)CC2)C(=O)N(S(=O)(=O)c2ccc(OC)cn2)c2ccc(C#N)cc21 (racemic) [Example 145, (±)-5-Cyano-3-(2-ethoxy-5-methoxy-phenyl)-3-[4-(4-ethyl-piperazin-1-yl)-piperidin-1-yl]-1-(5-methoxy-pyridine-2-sulfonyl)-2,3-dihydro-1H-indol-2-one]",10 to 50 nM
11,"CCOc1ccc(OC)cc1C1(N2CCN(c3ccnc(CC)c3)CC2)C(=O)N(S(=O)(=O)c2ccc(OC)cn2)c2ccc(C#N)cc21 (racemic) [Example 146, (±)-5-Cyano-3-(2-ethoxy-5-methoxy-phenyl)-3-[4-(2-ethyl-pyridin-4-yl)-piperazin-1-yl]-1-(5-methoxy-pyridine-2-sulfonyl)-2,3-dihydro-1H-indol-2-one]",< 10 nM
12,"CCOc1cc(F)ccc1C1(N2CCCN(c3ccncc3)CC2)C(=O)N(S(=O)(=O)c2ccc(OC)cn2)c2ccc(C#N)cc21 (racemic) [Example 147, (±)-5-Cyano-3-(2-ethoxy-4-fluoro-phenyl)-1-(5-methoxy-pyridine-2-sulfonyl)-3-(4-pyridin-4-yl-[1,4]diazepan-1-yl)-2,3-dihydro-1H-indol-2-one]",10 to 50 nM
13,"CCOc1nc(Cl)ccc1C1(N2CC3CN(c4ccncc4)CC3C2)C(=O)N(S(=O)(=O)c2ccc(OC)cn2)c2ccc(C#N)cc21 (racemic) [Example 148, (±)-5-Cyano-3-(6-chloro-2-ethoxy-pyridin-3-yl)-1-(5-methoxy-pyridine-2-sulfonyl)-3-(5-pyridin-4-yl-hexahydro-pyrrolo[3,4-c]pyrrol-2-yl)-2,3-dihydro-1H-indol-2-one]",10 to 50 nM

# Next, values leading:
row,Ki,Structure (SMILES)
1,< 10 nM,"CCOc1nc(Cl)ccc1C1(N2CC3CN(c4ccnc(C)c4)CC3C2)C(=O)N(S(=O)(=O)c2ccc(OC)cn2)c2ccc(C#N)cc21 (racemic) [Example 149, (±)-5-Cyano-3-(6-chloro-2-ethoxy-pyridin-3-yl)-1-(5-methoxy-pyridine-2-sulfonyl)-3-[5-(2-methyl-pyridin-4-yl)-hexahydro-pyrrolo[3,4-c]pyrrol-2-yl]-2,3-dihydro-1H-indol-2-one]"
2,10 to 50 nM,"CCOc1ccccc1C1(N2CCN(c3ccnc(C(C)C)c3)CC2)C(=O)N(S(=O)(=O)c2ccc(OC)cn2)c2ccc(C#N)cc21 (racemic) [Example 150, (±)-5-Cyano-3-(2-ethoxy-phenyl)-3-[4-(2-isopropyl-pyridin-4-yl)-piperazin-1-yl]-1-(5-methoxy-pyridine-2-sulfonyl)-2,3-dihydro-1H-indol-2-one]"
3,< 10 nM,"CCOc1cc(F)ccc1C1(N2CCN(c3ccnc(C(C)C)c3)CC2)C(=O)N(S(=O)(=O)c2ccc(OC)cn2)c2ccc(C#N)cc21 (racemic) [Example 153, (±)-5-Cyano-3-(2-ethoxy-4-fluoro-phenyl)-3-[4-(2-isopropyl-pyridin-4-yl)-piperazin-1-yl]-1-(5-methoxy-pyridine-2-sulfonyl)-2,3-dihydro-1H-indol-2-one]"
4,< 10 nM,"CCOc1ccc(OC)cc1C1(N2CCCN(c3ccnc(C(C)C)c3)CC2)C(=O)N(S(=O)(=O)c2ccc(OC)cn2)c2ccc(C#N)cc21 (racemic) [Example 154, (±)-5-Cyano-3-(2-ethoxy-5-methoxy-phenyl)-3-[4-(2-isopropyl-pyridin-4-yl)-[1,4]diazepan-1-yl]-1-(5-methoxy-pyridine-2-sulfonyl)-2,3-dihydro-1H-indol-2-one]"
5,10 to 50 nM,"CCOc1nc(Cl)ccc1C1(N2CC3CC2CN3c2ccncc2)C(=O)N(S(=O)(=O)c2ccc(OC)cn2)c2ccc(C#N)cc21 (racemic) [Example 155, (±)-5-Cyano-3-(6-chloro-2-ethoxy-pyridin-3-yl)-1-(5-methoxy-pyridine-2-sulfonyl)-3-((1S,4S)-5-pyridin-4-yl-2,5-diaza-bicyclo[2.2.1]hept-2-yl)-2,3-dihydro-1-2-one]"
6,10 to 50 nM,"CCOc1cc(OC)ccc1C1(N2CCN(c3ccncc3)CC2)C(=O)N(S(=O)(=O)c2cccc3cccnc23)c2ccc(C#N)cc21 (racemic) [Example 157, (±)-5-Cyano-3-(2-ethoxy-4-methoxy-phenyl)-3-(4-pyridin-4-yl-piperazin-1-yl)-1-(quinoline-8-sulfonyl)-2,3-dihydro-1H-indol-2-one]"
7,< 10 nM,"CCOc1ccc(C)cc1C1(N2CCN(c3ccncc3)CC2)C(=O)N(S(=O)(=O)c2ccc(OC)c3cccnc23)c2ccc(C#N)cc21 (racemic) [Example 159, (±)-5-Cyano-3-(2-ethoxy-5-methyl-phenyl)-1-(5-methoxy-quinoline-8-sulfonyl)-3-(4-pyridin-4-yl-piperazin-1-yl)-2,3-dihydro-1H-indol-2-one]"
8,< 10 nM,"CCOc1ccc(CC)cc1C1(N2CCN(c3ccnc(C)c3)CC2)C(=O)N(S(=O)(=O)c2ccc(OC)c3cccnc23)c2ccc(C#N)cc21 (racemic) [Example 160, (±)-5-Cyano-3-(2-ethoxy-5-ethyl-phenyl)-1-(5-methoxy-quinoline-8-sulfonyl)-3-[4-(2-methyl-pyridin-4-yl)-piperazin-1-yl]-2,3-dihydro-1H-indol-2-one]"
9,< 10 nM,"CCOc1ccc(OC)cc1C1(N2CCN(C3CCN(C)CC3)CC2)C(=O)N(S(=O)(=O)c2ccc(OC)c3cccnc23)c2ccc(C#N)cc21 (racemic) [Example 161, (±)-5-Cyano-3-(2-ethoxy-5-methoxy-phenyl)-1-(5-methoxy-quinoline-8-sulfonyl)-3-[4-(1-methyl-piperidin-4-yl)-piperazin-1-yl]-2,3-dihydro-1H-indol-2-one]"
10,< 10 nM,"CCOc1ccc(CC)cc1C1(N2CCN(c3ccnc(C)c3)CC2)C(=O)N(S(=O)(=O)c2ccc(OC)cn2)c2ccc(C#N)cc21 (racemic) [Example 165, (±)-5-Cyano-3-(2-ethoxy-5-ethyl-phenyl)-1-(5-methoxy-pyridine-2-sulfonyl)-3-[4-(2-methyl-pyridin-4-yl)-piperazin-1-yl]-2,3-dihydro-1H-indol-2-one]"
